The experiment concerns the target T1, Aβ42 (Homo sapiens, UniProt P05067).
T1 construct: amyloid beta (1–42) (Aβ42) self‐aggregation; purchased GenicBio Limited (Shanghai, China)
Kind of experiment: Inhibition of Aβ42 self-aggregation (Thioflavin T fluorescence). Type of experiment: biochemical. The conditions noted are these: read-out: Inhibition of Aβ42 self-aggregation, %.

SMILES strings stand for the structures. Where two headings read alike, the source gives them in different places.

T1 sequence (P05067 672-713 limits assumed): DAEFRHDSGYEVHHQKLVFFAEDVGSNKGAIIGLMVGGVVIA
Experimental: Inhibition of β-amyloid (1– 42) (Aβ42) self-aggregation
Inhibition of Aβ42 self-aggregation by test compounds was studied using the thioflavin T (ThT)
fluorescence method [8- 10] with minor modifications as described in detail in [11]. Lyophilized
HFIP- pretreated Aβ42 (GenicBio Limited (Shanghai, China), 1 mg) was dissolved in DMSO to
obtain a stable 500 μM solution.
pH 8.0 were incubated for 24 h at 37°C in the absence or presence of 100 μM test compounds.
Myricetin in the same concentration was used as reference. After incubation, 5 μM ThT in 50
mM glycine-NaOH buffer pH 8.5 was added, and the fluorescence was measured at 440 nm
Each assay was run in triplicate. The degree of
inhibition of Aβ42 self-aggregation by the studied compounds (%) was calculated by the
of inhibitor, respectively, after subtracting the fluorescence of respective blanks.

What is called inhibition is how much of the control response was suppressed. Consider `O=c1c(O)c(-c2cc(O)c(O)c(O)c2)oc2cc(O)cc(O)c12` [Myricetin], for which the inhibition at 100 µM amounted to 74.7 ± 5.2%.

Consider `Nc1c2c(nc3c1CCC3)CCCC2` [Amiridine, amiridine], for which, for the setting “Aβ42 50 µM, compound 100 µM”, the inhibition at 100 µM is 6.4 ± 0.5%.

The values above are taken from article PMC13400319 (Chemmedchem, 2026).
